Reference: patent US8703758B2, “Bicyclic compound” (Takeda Pharmaceutical Company Limited, priority 2010, dated 2014)

Tests used:
human ACC2 = biological target: T1, human ACC2 (Homo sapiens, UniProt O00763); assay: Measurement of ACC2 inhibitory activity (malachite green, recombinant ACC2 (Nd)); type: biochemical; conditions: read-out: ACC2 inhibitory rate (%)
T1 construct: His6 (from vector pFAST-BacHTa); made in house; host or cells: SF-9 insect cells, recombinant baculovirus BAC-ACC2 (Nd)
Method: The ACC2 inhibitory action of the compound of the present invention was evaluated by the following method.
(1) Cloning of Human ACC2 Gene and Preparation of Recombinant Baculovirus
Human ACC2 gene was cloned by PCR using a human skeletal muscle cDNA library (Clontech) as a template and Primer 1 and Primer 2 shown below. Primer 1 and Primer 2 were prepared by adding SalI, XbaI restriction enzyme recognition sequences based on the information of the base sequence of human ACC2 gene (Genbank Accession U89344).
(§1) PCR was performed using Pyrobest DNA polymerase (TAKARA BIO INC.). The obtained PCR product was cloned to pT7 Blue vector (Novagen) and after confirmation of the base sequence, digested with restriction enzymes SalI and XbaI. The obtained DNA fragment was inserted into pFAST-BacHTa (Invitrogen) digested with restriction enzymes SalI and XbaI to give expression plasmid ACC2/pFAST-BacHTa.
A plasmid for expression of ACC2 without a mitochondrial targeting sequence was prepared by PCR using the expression plasmid as a template, and Primer 3 (SalI restriction enzyme recognition sequence was added) and Primer 4 prepared by reference to the information of human ACC2 gene base sequence (Genbank Accession U89344).
as §1, with “Pyrobest-DNA” for “Pyrobest DNA”, “AflII.” for “XbaI.”, “ACC2/pFAST-BacHTa” for “pFAST-BacHTa (Invitrogen)”, “AflII” for “XbaI”, “ACC2mito7/pFAST-BacHTa.” for “ACC2/pFAST-BacHTa.”
Using the expression plasmid ACC2mito7/pFAST-BacHTa and BAC-TO-BAC Baculovirus Expression System (Invitrogen), virus stock BAC-ACC2 of recombinant Baculovirus (N terminal deleted (hereinafter Nd)) was prepared.
(2) Preparation of ACC2 (Nd) Protein
SF-9 cells (Invitrogen) were inoculated to a medium (2 L) for insect cells (Sf-900IISFM medium (Invitrogen) containing 10% fetal bovine serum (Trace), 50 mg/L Gentamicin (Invitrogen), 0.1% Pluronic F-68 (Invitrogen)) at 0.5×10^6 cells/mL, and cultured with shaking in Wave Bioreactor (Wave) at 27° C., 20 rpm, rocking angle 6°, oxygen concentration 30%.
On day 4 of the culture, 3 L of the medium for insect cells was added, the rocking angle was set to 8°, and the cells were further cultured. On day 5 of the culture, 100 mL of recombinant Baculovirus BAC-ACC2 (Nd) was added, 5 L of the medium for insect cells was further added, the rocking angle was set to 11°, and the cells were cultured for 3 days. The culture medium was centrifuged at 1000×g for 10 min to give virus-infected cells. The cells were washed with phosphate buffered saline (Invitrogen) and centrifuged under the same conditions. The obtained cells were cryopreserved at −80° C.
The cryopreserved cells were thawed in ice and suspended in 900 mL of 25 mM HEPES buffer (pH 7.5) containing 10% Glycerol, 0.13 M NaCl, 1 mM EDTA, 25 mM Sodium β-Glycerophosphate and 1 mM Sodium Orthovanadate, and supplemented with Complete Protease Inhibitor (Nippon Boehringer Ingelheim Co., Ltd.). The obtained suspension was homogenized three times in a polytron homogenizer (Kinematica) at 20,000 rpm for 30 sec. The obtained cell disruption solution was clarified by centrifugation at 31000×g for 60 min, and filtered through a 0.45 μm filter. The filtrate was passed through a column packed with 60 mL of Ni-NTA Super Flow Gel (QUIAGEN) at a flow rate of about 5 mL/min. The column was washed with buffer A (50 mM HEPES (pH 7.5) containing 0.3 M NaCl), further washed with buffer A containing 20 mM Imidazole, and eluted with buffer A containing 100 mM Imidazole. The eluate was concentrated with Vivaspin 20 (Vivascience) with a molecular weight cut off of 30K. The obtained concentrate was dialyzed against 50 mM HEPES (pH 7.5) containing 10 mM MgCl2, 2 mM Dithiothreitol, 10 mM Tripotassium Citrate and 0.3 M NaCl. The inner dialysate was filtered through a 0.22 μm filter to give ACC2 (Nd). […]

[1] = Body weight after 4 weeks of oral administration in rats on Western diet (anti-obesity action); type: in vivo, rat; conditions: male F344/Jcl rats; for body weight after administration for 4 weeks: Western diet, Mean ± S.D., N = 6
Method: 6-week-old male F344/Jcl rats (CLEA Japan, Inc., Tokyo) were individually reared immediately after purchase and Western diet (D12079B, Research diet) was given. From the next day, an acclimation dosing (0.5% Methyl Cellulose, 5 mL/kg, oral administration) was started (once between 8:00 AM and 11:00 AM) and body weight and food consumption amount were appropriately measured. The rats with body weight and consumption amount extremely out of the average values in the acclimation dosing period were excluded. At the stage of 7-week-old, the body weight, food consumption amount, and body fat by Echo-MRI were measured, and the rats were grouped (6 per group) based on these measurement results. During 4 weeks of the test period, body weight was measured between 8:00 AM and 11:00 AM, and a solvent (0.5% Methyl Cellulose) or a test compound (0.5% Methyl Cellulose suspension) was consecutively administered by gavage at 5 mL/kg.
4 Weeks later, the body weight was measured in the morning. All values show mean±standard deviation and Williams' test and t-test were used for statistical analysis.

[2] = Respiratory quotient (RQ) measurement in rats on Western diet; type: in vivo, rat; conditions: 20 mg/kg by gavage, male F344/Jcl rats, Mean ± S.D., N = 5
Method: 5-week-old male F344/Jcl rats (CLEA Japan, Inc., Tokyo) were acclimated to the rearing environment for 1 week after purchase and the diet was changed to Western diet (D12079B, Research diet). They were used for the experiment of Respiratory quotient (RQ) measurement at 8-week-old. For the RQ measurement experiment, the body weight was measured in the late afternoon (15:30-16:30) of the previous day and the morning (8:00-9:00) of the day, and the rats with high or low body weight increase were excluded. To the animals were administered by gavage 15 mL/kg of a liquid diet (F2LCW, Oriental Yeast Co., Ltd) prepared to a concentration of 4.95 g/15 mL (1.436 kcal/mL), and they were placed in an indirect calorimeter (Oxymax) chamber manufactured by Columbus Instruments, and RQ was recorded every 10 min. RQ values were confirmed about 1 hr after the start of the measurement and the animals were grouped (5 per group) such that a difference between groups would be small. For medication, a solvent (0.5% Methyl Cellulose, Wako Pure Chemical Industries, Ltd.) or a test compound (0.5% Methyl Cellulose suspension) was administered by gavage at 5 mL/kg. RQ was measured at 10 minute intervals from 0 to 3 hours after administration, and the average thereof was calculated. All values are shown in mean±standard deviation and statistical analysis was performed by the Dunnett-test.

T1 sequence (O00763 117-2458 limits assumed): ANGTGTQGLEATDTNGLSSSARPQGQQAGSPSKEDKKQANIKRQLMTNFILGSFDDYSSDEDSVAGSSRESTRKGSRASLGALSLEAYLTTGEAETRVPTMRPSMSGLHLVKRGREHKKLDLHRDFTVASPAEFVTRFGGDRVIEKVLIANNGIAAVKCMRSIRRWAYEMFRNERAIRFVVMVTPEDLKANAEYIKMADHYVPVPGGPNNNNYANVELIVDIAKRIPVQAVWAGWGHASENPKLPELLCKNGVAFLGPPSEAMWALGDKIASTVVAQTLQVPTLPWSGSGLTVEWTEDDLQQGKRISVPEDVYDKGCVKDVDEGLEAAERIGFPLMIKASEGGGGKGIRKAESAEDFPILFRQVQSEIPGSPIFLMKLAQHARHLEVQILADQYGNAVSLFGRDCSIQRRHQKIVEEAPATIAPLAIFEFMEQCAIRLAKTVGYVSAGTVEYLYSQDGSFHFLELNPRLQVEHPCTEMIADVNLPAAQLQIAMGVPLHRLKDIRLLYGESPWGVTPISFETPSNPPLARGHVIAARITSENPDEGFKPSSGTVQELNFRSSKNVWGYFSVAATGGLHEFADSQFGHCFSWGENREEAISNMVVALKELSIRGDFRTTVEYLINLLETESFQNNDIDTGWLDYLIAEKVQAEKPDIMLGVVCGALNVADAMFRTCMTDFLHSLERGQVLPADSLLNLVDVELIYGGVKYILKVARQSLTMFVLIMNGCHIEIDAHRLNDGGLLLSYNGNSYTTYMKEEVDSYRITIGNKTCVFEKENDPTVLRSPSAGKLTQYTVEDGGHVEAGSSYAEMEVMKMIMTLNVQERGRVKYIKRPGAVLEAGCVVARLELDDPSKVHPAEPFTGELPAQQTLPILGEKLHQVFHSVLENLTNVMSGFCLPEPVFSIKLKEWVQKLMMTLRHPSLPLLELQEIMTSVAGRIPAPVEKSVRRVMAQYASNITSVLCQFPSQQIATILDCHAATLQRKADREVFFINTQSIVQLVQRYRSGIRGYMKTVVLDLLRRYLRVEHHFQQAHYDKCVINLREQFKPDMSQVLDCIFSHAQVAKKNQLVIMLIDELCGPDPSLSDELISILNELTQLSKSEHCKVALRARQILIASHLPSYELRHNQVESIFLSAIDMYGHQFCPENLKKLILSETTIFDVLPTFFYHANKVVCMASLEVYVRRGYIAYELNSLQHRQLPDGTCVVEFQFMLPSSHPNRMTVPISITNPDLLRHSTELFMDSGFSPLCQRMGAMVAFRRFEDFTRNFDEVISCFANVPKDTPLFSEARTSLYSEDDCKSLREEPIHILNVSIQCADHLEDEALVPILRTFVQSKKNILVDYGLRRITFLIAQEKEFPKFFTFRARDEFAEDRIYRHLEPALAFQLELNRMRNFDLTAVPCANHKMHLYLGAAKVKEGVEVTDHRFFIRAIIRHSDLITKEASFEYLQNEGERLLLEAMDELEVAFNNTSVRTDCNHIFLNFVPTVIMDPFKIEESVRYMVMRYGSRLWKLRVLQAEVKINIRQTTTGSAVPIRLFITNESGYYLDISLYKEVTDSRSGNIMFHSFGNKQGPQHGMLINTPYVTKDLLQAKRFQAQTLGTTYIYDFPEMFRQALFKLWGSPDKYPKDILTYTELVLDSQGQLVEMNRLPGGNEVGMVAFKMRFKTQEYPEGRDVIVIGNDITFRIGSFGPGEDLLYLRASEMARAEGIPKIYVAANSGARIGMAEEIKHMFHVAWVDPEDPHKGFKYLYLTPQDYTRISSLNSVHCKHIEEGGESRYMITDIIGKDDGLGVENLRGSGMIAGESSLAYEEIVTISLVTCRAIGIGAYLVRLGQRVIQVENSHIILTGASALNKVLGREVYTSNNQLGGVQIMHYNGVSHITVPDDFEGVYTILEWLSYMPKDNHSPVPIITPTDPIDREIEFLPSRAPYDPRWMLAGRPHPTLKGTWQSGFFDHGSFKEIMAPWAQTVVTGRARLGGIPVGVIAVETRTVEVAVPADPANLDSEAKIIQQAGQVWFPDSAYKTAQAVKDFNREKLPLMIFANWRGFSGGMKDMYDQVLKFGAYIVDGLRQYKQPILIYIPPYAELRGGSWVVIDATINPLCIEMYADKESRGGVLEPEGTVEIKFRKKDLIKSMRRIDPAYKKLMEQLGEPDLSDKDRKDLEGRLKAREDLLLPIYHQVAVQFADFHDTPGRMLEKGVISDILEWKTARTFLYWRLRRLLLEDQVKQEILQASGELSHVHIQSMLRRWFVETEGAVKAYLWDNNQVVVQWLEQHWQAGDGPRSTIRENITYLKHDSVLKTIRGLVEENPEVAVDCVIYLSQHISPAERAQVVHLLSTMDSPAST

melting point [°C]	inhibition at 10 µM (human ACC2) [%]	SMILES	also measured
104 to 105		CC(=O)NC(C)CO[C@H]1CC[C@H](c2cc3ccc(OCC4CC4)cc3o2)CC1 (stereo partly drawn) [Example 38, N-[2-({trans-4-[6-(cyclopropylmethoxy)-1-benzofuran-2-yl]cyclohexyl}oxy)-1-methylethyl]acetamide]	
131 to 132	104	CC(=O)NC(C)CCC1CCN(c2nc3ccc(OCC4CC4)cc3o2)CC1 (racemic) [Example 5, N-(3-{1-[6-(cyclopropylmethoxy)-1,3-benzoxazol-2-yl]piperidin-4-yl}-1-methylpropyl)acetamide]	
103 to 105	99	CC(=O)N[C@@H](C)COC1CCN(c2nc3ccc(OCC(C)C)cc3o2)CC1 [Example 33, N-[(1S)-1-methyl-2-({1-[6-(2-methylpropoxy)-1,3-benzoxazol-2-yl]piperidin-4-yl}oxy)ethyl]acetamide]	
138.2 to 138.4	106	CC(=O)N[C@@H](C)CCC1CCN(c2nc3ccc(OCC4CC4)cc3o2)CC1 [Example 5a, N-[(1S)-(3-{1-[6-(cyclopropylmethoxy)-1,3-benzoxazol-2-yl]piperidin-4-yl}-1-methylpropyl)]acetamide]	
99 to 100	100	CC(=O)N[C@@H](C)COC1CCN(c2nc3cc(OCC4CC4)ccc3o2)CC1 [Example 2, N-[(1S)-2-({1-[5-(cyclopropylmethoxy)-1,3-benzoxazol-2-yl]piperidin-4-yl}oxy)-1-methylethyl]acetamide]	comparison with control group (body weight after 4 weeks) ([1]; 10 mg/kg/day by gavage): −5.4%; body weight after administration for 4 weeks ([1]; 10 mg/kg/day by gavage): 267.2 ± 4.1; comparison with control group (body weight after 4 weeks) ([1]; 20 mg/kg/day by gavage): −6.0%; body weight after administration for 4 weeks ([1]; 20 mg/kg/day by gavage): 265.4 ± 10.8; average RQ of 0 to 3 hours after administration [2]: 0.787 ± 0.019

The remaining lines, values behind:

SMILES	melting point [°C]	inhibition at 10 µM (human ACC2) [%]	also measured
CC(=O)NC(C)CO[C@H]1CC[C@H](c2nc3ccc(OCC4CC4)cc3o2)CC1 (stereo partly drawn) [Example 39, N-[2-({trans-4-[6-(cyclopropylmethoxy)-1,3-benzoxazol-2-yl]cyclohexyl}oxy)-1-methylethyl]acetamide]	131 to 132		
CC(=O)N[C@@H](C)COC1CCN(c2nc3cc(OCC4CCC4)ccc3o2)CC1 [Example 6, N-[(1S)-2-({1-[5-(cyclobutylmethoxy)-1,3-benzoxazol-2-yl]piperidin-4-yl}oxy)-1-methylethyl]acetamide]	109 to 110	98	
CC(=O)N[C@@H](C)CO[C@H]1CC[C@H](n2cc3ccc(OCCC4CC4)cc3n2)CC1 [Example 40, N-[(1S)-2-({trans-4-[6-(2-cyclopropylethoxy)-2H-indazol-2-yl]cyclohexyl}oxy)-1-methylethyl]acetamide]	98 to 99		
CC(=O)N[C@@H](C)COC1CCN(c2nc3ccc(OCC4CCC4)cc3o2)CC1 [Example 34, N-[(1S)-2-({1-[6-(cyclobutylmethoxy)-1,3-benzoxazol-2-yl]piperidin-4-yl}oxy)-1-methylethyl]acetamide]		102	
CC(=O)N[C@@H](C)COC1CCN(c2nc3ccc(OCCC4CC4)cc3o2)CC1 [Example 35, N-[(1S)-2-({1-[6-(2-cyclopropylethoxy)-1,3-benzoxazol-2-yl]piperidin-4-yl}oxy)-1-methylethyl]acetamide]	99.3 to 99.6	102	
CC(=O)N[C@@H](C)COC1CCN(c2nc3cc(OCC4CC4)ccc3s2)CC1 [Example 3, N-[(1S)-2-({1-[5-(cyclopropylmethoxy)-1,3-benzothiazol-2-yl]piperidin-4-yl}oxy)-1-methylethyl]acetamide]		104	
CC(=O)NC(C)CC[C@H]1CC[C@H](n2cc3ccc(OCC4CC4)cc3n2)CC1 (stereo partly drawn) [Example 41, N-(3-{trans-4-[6-(cyclopropylmethoxy)-2H-indazol-2-yl]cyclohexyl}-1-methylpropyl)acetamide]	139 to 140		
CC(=O)N[C@@H](C)COC1CCN(c2nc3ccc(OCC4CC4)cc3o2)CC1 [Example 1, N-[(1S)-2-({1-[6-(cyclopropylmethoxy)-1,3-benzoxazol-2-yl]piperidin-4-yl}oxy)-1-methylethyl]acetamide]	122 to 123	97	comparison with control group (body weight after 4 weeks) ([1]; 20 mg/kg/day by gavage): −6.1%; body weight after administration for 4 weeks ([1]; 20 mg/kg/day by gavage): 265.1 ± 7.2; average RQ of 0 to 3 hours after administration [2]: 0.795 ± 0.013
Cc1conc1NC(C)COC1CCN(c2nc3ccc(OCC4CC4)cc3o2)CC1 (stereo not drawn) [Example 7, N-[2-({1-[6-(cyclopropylmethoxy)-1,3-benzoxazol-2-yl]piperidin-4-yl}oxy)-1-methylethyl]-4-methylisoxazol-3-amine]		100	
CC(COC1CCN(c2nc3ccc(OCC4CC4)cc3o2)CC1)Nc1ccon1 (stereo not drawn) [Example 4, N-[2-({1-[6-(cyclopropylmethoxy)-1,3-benzoxazol-2-yl]piperidin-4-yl}oxy)-1-methylethyl]isoxazol-3-amine]		100	
